Earlier results in patent publication US20130137766A1, “Compound Used to Prevent Diseases Caused by Aquaporin Deficiency” (FU-JEN CATHOLIC UNIVERSITY, priority 2010, published 2013).

Tested on: AQP-3
Settings: EGF-treated groups

EGF: epidermal growth factor, literature comparator (Cong Cao et al.) (NSDSECPLSHDGYCLHDGVCMYIEALDKYACNCVVGYIGERCQYRDLKWWELR; UniProt P01133 971-1023, looked up)
expression of AQP-3: significantly increased
wound healing: wound healing was facilitated
